Laboratory results from ChEMBL document CHEMBL1133776, “A rapid computational method for lead evolution: description and application to alpha(1)-adrenergic antagonists” (J Med Chem, 2000).

Target: T1, Adrenergic receptor alpha-1 (Rattus norvegicus, UniProt P15823+P23944+P43140)
T1 sequence (P15823 whole entry): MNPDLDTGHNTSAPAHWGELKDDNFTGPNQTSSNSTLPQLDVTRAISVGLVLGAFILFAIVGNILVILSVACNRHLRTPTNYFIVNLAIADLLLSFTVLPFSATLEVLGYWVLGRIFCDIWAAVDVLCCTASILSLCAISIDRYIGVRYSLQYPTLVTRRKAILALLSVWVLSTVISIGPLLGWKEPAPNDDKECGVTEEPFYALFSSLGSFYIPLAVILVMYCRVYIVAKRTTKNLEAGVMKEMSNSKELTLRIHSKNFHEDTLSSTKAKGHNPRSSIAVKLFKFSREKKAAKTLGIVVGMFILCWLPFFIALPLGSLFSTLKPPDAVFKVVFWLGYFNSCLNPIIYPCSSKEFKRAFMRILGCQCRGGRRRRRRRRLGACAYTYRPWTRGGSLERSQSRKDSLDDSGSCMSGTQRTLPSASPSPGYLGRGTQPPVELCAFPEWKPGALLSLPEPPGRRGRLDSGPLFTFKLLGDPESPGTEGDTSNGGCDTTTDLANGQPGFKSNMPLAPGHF
T1 sequence (P23944 whole entry): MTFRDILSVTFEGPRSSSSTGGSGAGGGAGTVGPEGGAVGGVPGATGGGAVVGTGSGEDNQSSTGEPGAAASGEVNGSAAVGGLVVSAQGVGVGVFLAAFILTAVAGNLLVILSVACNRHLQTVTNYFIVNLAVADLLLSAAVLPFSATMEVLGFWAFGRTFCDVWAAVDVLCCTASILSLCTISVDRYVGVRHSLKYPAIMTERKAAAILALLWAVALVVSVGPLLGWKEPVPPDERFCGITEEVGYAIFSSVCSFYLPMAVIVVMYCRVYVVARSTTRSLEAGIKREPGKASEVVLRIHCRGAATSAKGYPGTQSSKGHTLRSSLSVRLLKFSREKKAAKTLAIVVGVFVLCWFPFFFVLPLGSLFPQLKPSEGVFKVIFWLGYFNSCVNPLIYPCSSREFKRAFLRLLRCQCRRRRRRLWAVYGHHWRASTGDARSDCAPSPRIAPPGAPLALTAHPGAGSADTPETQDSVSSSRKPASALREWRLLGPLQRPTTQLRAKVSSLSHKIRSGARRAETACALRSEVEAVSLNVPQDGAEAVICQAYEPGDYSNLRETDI
T1 sequence (P43140 whole entry): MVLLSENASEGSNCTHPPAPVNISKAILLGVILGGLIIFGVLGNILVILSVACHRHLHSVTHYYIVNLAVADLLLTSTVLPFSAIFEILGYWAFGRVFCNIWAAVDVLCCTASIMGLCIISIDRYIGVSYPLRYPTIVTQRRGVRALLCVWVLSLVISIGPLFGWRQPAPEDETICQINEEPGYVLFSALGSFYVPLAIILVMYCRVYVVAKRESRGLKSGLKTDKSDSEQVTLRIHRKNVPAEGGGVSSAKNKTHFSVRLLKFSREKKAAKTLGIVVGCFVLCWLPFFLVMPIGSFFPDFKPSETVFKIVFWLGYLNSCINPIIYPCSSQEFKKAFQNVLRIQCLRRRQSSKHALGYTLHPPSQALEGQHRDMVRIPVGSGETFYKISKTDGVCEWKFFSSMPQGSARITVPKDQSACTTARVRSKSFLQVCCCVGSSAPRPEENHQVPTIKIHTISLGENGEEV
Assay: Evaluated for binding affinity against alpha-1 adrenergic receptor
Assay type: protein assay

- Ki: 0.54 nM
SMILES: COc1cccc(OC)c1OCCNCC1COc2ccccc2O1 (stereo unspecified)
